The source made the active and inactive calls. The calls are words filed in the database; no cut-off is given here.
How the values were obtained:
LLC-PK1 [1] = experiment: Cytotoxicity against pig LLC-PK1 cells at 15 ug/ml after 6 hrs pretreated with 10 uM of ERK inhibitor PD98059 for 1 hr by WST-8 assay; assay type: cell-based, Sus scrofa; settings: llc-pk1, 6 h
LLC-PK1 [2] = experiment: Cytotoxicity against pig LLC-PK1 cells at 15 ug/ml after 6 hrs by WST-8 assay in presence of 1 mM […] Ca2+ chelating agent EGTA; assay type: cell-based, Sus scrofa; settings: llc-pk1, 6 h
LLC-PK1 [3] = experiment: Induction of JNK phosphorylation in pig LLC-PK1 cells at 15 ug/ml by Western blot analysis; assay type: cell-based; settings: Sus scrofa
LLC-PK1 [4] = experiment: Cytotoxicity against pig LLC-PK1 cells at 1 to 20 ug/mL after 24 hrs by LDH leakage assay; assay type: cell-based, Sus scrofa; settings: llc-pk1, 24 h
LLC-PK1 [5] = experiment: Induction of mitochondrial membrane depolarization in pig LLC-PK1 cells at 15 ug/ml after 3 hrs pretreated with 10 uM of mitochondrial Na+ -Ca2+ exchange inhibitor CGP for 1 hr by JC-1 staining based fluorescent microscopy; assay type: cell-based, Sus scrofa; settings: llc-pk1, 3 h
LLC-PK1 [6] = experiment: Induction of mitochondrial membrane depolarization in pig LLC-PK1 cells at 15 ug/ml after 3 hrs pretreated with 10 uM of ERK inhibitor PD98059 for 1 hr by JC-1 staining based fluorescent microscopy; assay type: cell-based, Sus scrofa; settings: llc-pk1, 3 h
LLC-PK1 [7] = experiment: Induction of mitochondrial membrane depolarization in pig LLC-PK1 cells at 15 ug/ml after 3 hrs by JC-1 staining based fluorescent microscopy; assay type: cell-based, Sus scrofa; settings: llc-pk1, 3 h
LLC-PK1 [8] = experiment: Cytotoxicity against pig LLC-PK1 cells at 15 ug/ml after 6 hrs pretreated with 10 uM of mitochondrial Ca2+ uniport inhibitor RR for 20 mins by WST-8 assay; assay type: cell-based, Sus scrofa; settings: llc-pk1, 6 h
LLC-PK1 [9] = experiment: Induction of JNK phosphorylation in pig LLC-PK1 cells at 15 ug/ml by Western blot analysis in presence of 2 uM […]; assay type: cell-based; settings: Sus scrofa
LLC-PK1 [10] = experiment: Induction of apoptosis in pig LLC-PK1 cells at 15 ug/ml after 24 hrs by TUNEL assay; assay type: cell-based, Sus scrofa; settings: llc-pk1, 24 h
LLC-PK1 [11] = experiment: Decrease in intracellular ATP level in pig LLC-PK1 cells after 24 hrs by HPLC/MS analysis; assay type: ADME, cell-based, Sus scrofa; settings: llc-pk1, 24 h
LLC-PK1 [12] = experiment: Cytotoxicity against pig LLC-PK1 cells at 15 ug/ml after 6 hrs by WST-8 assay in presence of 2 uM […]; assay type: cell-based, Sus scrofa; settings: llc-pk1, 6 h
LLC-PK1 [13] = experiment: Cytotoxicity against pig LLC-PK1 cells at 15 ug/ml after 6 hrs pretreated with 30 uM of ryanodine receptor antagonist Dant for 20 mins by WST-8 assay; assay type: cell-based, Sus scrofa; settings: llc-pk1, 6 h
LLC-PK1 [14] = experiment: Cytotoxicity against pig LLC-PK1 cells at 15 ug/ml after 24 hrs by propidium iodide staining; assay type: cell-based, Sus scrofa; settings: llc-pk1, 24 h
LLC-PK1 [15] = experiment: Cytotoxicity against pig LLC-PK1 cells at 15 ug/ml after 6 hrs pretreated for 1 hr with membrane cholesterol depletion agent methyl-beta-cyclodextrin; assay type: cell-based, Sus scrofa; settings: llc-pk1, 6 h
LLC-PK1 [16] = experiment: Cytotoxicity against pig LLC-PK1 cells at 15 ug/ml after 6 hrs pretreated with 10 uM of p38 MAPK inhibitor PD169316 for 1 hr by WST-8 assay; assay type: cell-based, Sus scrofa; settings: llc-pk1, 6 h
LLC-PK1 [17] = experiment: Decrease in intracellular ATP level in pig LLC-PK1 cells at 10 ug/ml after 24 hrs by HPLC/MS analysis; assay type: ADME, cell-based, Sus scrofa; settings: llc-pk1, 24 h, TDE = time-dependent effect
LLC-PK1 [18] = experiment: Induction of mitochondrial membrane depolarization in pig LLC-PK1 cells at 15 ug/ml after 3 hrs pretreated with 10 uM of JNK inhibitor 2 for 1 hr by JC-1 staining based fluorescent microscopy; assay type: cell-based, Sus scrofa; settings: llc-pk1, 3 h
LLC-PK1 [19] = experiment: Cytotoxicity against pig LLC-PK1 cells at 20 ug/mL by WST-8 assay; assay type: cell-based, Sus scrofa; settings: TDE = time-dependent effect
LLC-PK1 [20] = experiment: Cytotoxicity against pig LLC-PK1 cells at 15 ug/ml after 6 hrs pretreated for 1 hr with membrane cholesterol depletion agent methyl-beta-cyclodextrin in presence of 4% v/v cholesterol repletion condition; assay type: cell-based, Sus scrofa; settings: llc-pk1, 6 h
LLC-PK1 [21] = experiment: Cytotoxicity against pig LLC-PK1 cells at 1 to 20 ug/mL after 24 hrs by WST-8 assay; assay type: cell-based, Sus scrofa; settings: llc-pk1, 24 h
LLC-PK1 [22] = experiment: Cytotoxicity against pig LLC-PK1 cells at 15 ug/ml after 6 hrs pretreated with 10 uM of JNK inhibitor 2 for 1 hr by WST-8 assay; assay type: cell-based, Sus scrofa; settings: llc-pk1, 6 h
LLC-PK1 [23] = experiment: Cytotoxicity against pig LLC-PK1 cells at 15 ug/ml after 6 hrs by WST-8 assay in presence low extracellular Na+ level (70 mM Na+); assay type: cell-based, Sus scrofa; settings: llc-pk1, 6 h
LLC-PK1 [24] = experiment: Induction of mitochondrial membrane depolarization in pig LLC-PK1 cells at 15 ug/ml after 3 hrs pretreated with 10 uM of mitochondrial Ca2+ uniport inhibitor RR for 1 hr by JC-1 staining based fluorescent microscopy; assay type: cell-based, Sus scrofa; settings: llc-pk1, 3 h
LLC-PK1 [25] = experiment: Induction of ERK phosphorylation in pig LLC-PK1 cells at 15 ug/ml by Western blot analysis in presence of 2 uM […]; assay type: cell-based; settings: Sus scrofa
LLC-PK1 [26] = experiment: Induction of ERK phosphorylation in pig LLC-PK1 cells at 15 ug/ml by Western blot analysis; assay type: cell-based; settings: Sus scrofa
LLC-PK1 [27] = experiment: Cytotoxicity against pig LLC-PK1 cells at 20 ug/mL by LDH leakage assay; assay type: cell-based, Sus scrofa; settings: TDE = time-dependent effect
LLC-PK1 [28] = experiment: Induction of p38 phosphorylation in pig LLC-PK1 cells at 15 ug/ml by Western blot analysis in presence of 2 uM […]; assay type: cell-based; settings: Sus scrofa
LLC-PK1 [29] = experiment: Cytotoxicity against pig LLC-PK1 cells at 15 ug/ml after 6 hrs pretreated with 1 uM of IP3 antagonist Xesto for 20 mins by WST-8 assay; assay type: cell-based, Sus scrofa; settings: llc-pk1, 6 h
LLC-PK1 [30] = experiment: Induction of p38 phosphorylation in pig LLC-PK1 cells at 15 ug/ml by Western blot analysis; assay type: cell-based; settings: Sus scrofa
LLC-PK1 [31] = experiment: Cytotoxicity against pig LLC-PK1 cells at 15 ug/ml after 6 hrs pretreated with 10 uM of mitochondrial Na+ -Ca2+ exchange inhibitor CGP for 20 mins by WST-8 assay; assay type: cell-based, Sus scrofa; settings: llc-pk1, 6 h

C[C@@H]1[C@H](O)[C@@H](C)/C=C/C=C/C=C/C=C/C=C/C=C/C=C/[C@H](O[C@@H]2O[C@H](C)[C@@H](O)[C@H](N)[C@@H]2O)C[C@@H]2O[C@](O)(C[C@@H](O)C[C@@H](O)[C@H](O)CC[C@@H](O)C[C@@H](O)CC(=O)O[C@H]1C)C[C@H](O)[C@H]2C(=O)O [AMPHOTERICIN B]
Activity (LLC-PK1 [1]): Non-toxic | Activity (LLC-PK1 [2]): Non-toxic | Activity (LLC-PK1 [3]): Active | Activity (LLC-PK1 [4]): Dose-dependent effect | Activity (LLC-PK1 [5]): Toxic | Activity (LLC-PK1 [6]): Toxic | Activity (LLC-PK1 [7]): Toxic | Activity (LLC-PK1 [8]): Non-toxic | Activity (LLC-PK1 [9]): Active | Activity (LLC-PK1 [10]): Non-toxic | Activity (LLC-PK1 [11]): Dose-dependent effect | Activity (LLC-PK1 [12]): Toxic | Activity (LLC-PK1 [13]): Non-toxic | Activity (LLC-PK1 [14]): Toxic | Activity (LLC-PK1 [15]): Non-toxic | Activity (LLC-PK1 [16]): Non-toxic | Activity (LLC-PK1 [17]): tde | Activity (LLC-PK1 [18]): Toxic | Activity (LLC-PK1 [19]): tde | Activity (LLC-PK1 [20]): Toxic | Activity (LLC-PK1 [21]): Dose-dependent effect | Activity (LLC-PK1 [22]): Non-toxic | Activity (LLC-PK1 [23]): Non-toxic | Activity (LLC-PK1 [24]): Toxic | Activity (LLC-PK1 [25]): Active | Activity (LLC-PK1 [26]): Active | Activity (LLC-PK1 [27]): tde | Activity (LLC-PK1 [28]): Active | Activity (LLC-PK1 [29]): Toxic | Activity (LLC-PK1 [30]): Active | Activity (LLC-PK1 [31]): Non-toxic

— ChEMBL document CHEMBL1687726, “Amphotericin B-induced renal tubular cell injury is mediated by Na+ Influx through ion-permeable pores and subsequent activation of mitogen-activated protein kinases and elevation of intracellular Ca2+ concentration” (Antimicrob Agents Chemother, 2009)
